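How tested: cells in 96-well plates exposed to compound for 48 hours at five concentrations. GI50 = concentration required for 50% inhibition of growth. Definition used: TGI = concentration required for complete inhibition of growth.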
Columns and labels:
Experiment in all cases: NCI tumour cell line growth inhibition, 48 h
SW-620 colon = test system: SW-620 colon
SN12C renal = test system: SN12C renal
SK-MEL-28 melanoma = test system: SK-MEL-28 melanoma
SK-MEL-5 melanoma = test system: SK-MEL-5 melanoma
MALME-3M melanoma = test system: MALME-3M melanoma
SK-OV-3 ovarian = test system: SK-OV-3 ovarian
EKVX NSCLC = test system: EKVX NSCLC
NCI-H23 lung = test system: NCI-H23 lung
UACC-257 melanoma = test system: UACC-257 melanoma
CAKI-1 renal = test system: CAKI-1 renal
OVCAR-4 ovarian = test system: OVCAR-4 ovarian
SNB-19 CNS = test system: SNB-19 CNS
TK-10 renal = test system: TK-10 renal
CCRF-CEM leukemia = test system: CCRF-CEM leukemia
HS 578T breast = test system: HS 578T breast
KM12 colon = test system: KM12 colon
HT29 colon = test system: HT29 colon
A498 renal = test system: A498 renal
T-47D breast = test system: T-47D breast
ACHN renal = test system: ACHN renal
SF-539 CNS = test system: SF-539 CNS
HCC-2998 colon = test system: HCC-2998 colon
SR leukemia = test system: SR leukemia
M14 melanoma = test system: M14 melanoma
U251 CNS = test system: U251 CNS
MOLT-4 leukemia = test system: MOLT-4 leukemia
RPMI-8226 leukemia = test system: RPMI-8226 leukemia
SF-295 CNS = test system: SF-295 CNS
COLO 205 colon = test system: COLO 205 colon
IGROV1 ovarian = test system: IGROV1 ovarian
BT-549 breast = test system: BT-549 breast
K-562 leukemia = test system: K-562 leukemia
HOP-62 NSCLC = test system: HOP-62 NSCLC
UACC-62 melanoma = test system: UACC-62 melanoma
MDA-MB-435 = test system: MDA-MB-435
OVCAR-5 ovarian = test system: OVCAR-5 ovarian
HOP-92 NSCLC = test system: HOP-92 NSCLC
NCI-H522 lung = test system: NCI-H522 lung
SF-268 CNS = test system: SF-268 CNS
786-0 renal = test system: 786-0 renal
RXF 393 renal = test system: RXF 393 renal
HCT-15 colon = test system: HCT-15 colon
MDA-MB-468 breast = test system: MDA-MB-468 breast
HCT-116 colon = test system: HCT-116 colon
OVCAR-3 ovarian = test system: OVCAR-3 ovarian
MCF7 breast = test system: MCF7 breast
NCI-H226 lung = test system: NCI-H226 lung
HL-60(TB) leukemia = test system: HL-60(TB) leukemia
OVCAR-8 ovarian = test system: OVCAR-8 ovarian
LOX IMVI melanoma = test system: LOX IMVI melanoma
PC-3 prostate = test system: PC-3 prostate
NCI-H460 lung = test system: NCI-H460 lung
DU-145 prostate = test system: DU-145 prostate
NCI/ADR-RES ovarian = test system: NCI/ADR-RES ovarian
A549 NSCLC = test system: A549 NSCLC

SMILES: N#CC1=C(c2cccs2)Nc2c(c(-c3ccccc3)nn2-c2ccccc2)C12C(=O)Nc1ccc(Br)cc12 (stereo not given)
- GI50 (SW-620 colon): 11.1 µM
- TGI (SW-620 colon): 26.5 µM
- GI50 (SN12C renal): 13.7 µM
- TGI (SN12C renal): 27.9 µM
- GI50 (SK-MEL-28 melanoma): 15.1 µM
- TGI (SK-MEL-28 melanoma): 28.4 µM
- GI50 (SK-MEL-5 melanoma): 16.6 µM
- TGI (SK-MEL-5 melanoma): 30.5 µM
- GI50 (MALME-3M melanoma): 14.5 µM
- TGI (MALME-3M melanoma): 27.8 µM
- GI50 (SK-OV-3 ovarian): 14.2 µM
- TGI (SK-OV-3 ovarian): 28.6 µM
- GI50 (EKVX NSCLC): 11.1 µM
- TGI (EKVX NSCLC): 27.4 µM
- GI50 (NCI-H23 lung): 9.98 µM
- TGI (NCI-H23 lung): 21.8 µM
- GI50 (UACC-257 melanoma): 15.6 µM
- TGI (UACC-257 melanoma): 30.9 µM
- GI50 (CAKI-1 renal): 16.2 µM
- TGI (CAKI-1 renal): 37.5 µM
- GI50 (OVCAR-4 ovarian): 14.2 µM
- TGI (OVCAR-4 ovarian): 34.1 µM
- GI50 (SNB-19 CNS): 5.23 µM
- TGI (SNB-19 CNS): 27.9 µM
- GI50 (TK-10 renal): 12.9 µM
- TGI (TK-10 renal): 36.7 µM
- GI50 (CCRF-CEM leukemia): 7.51 µM
- TGI (CCRF-CEM leukemia): 26.7 µM
- GI50 (HS 578T breast): 12.7 µM
- TGI (HS 578T breast): 40.1 µM
- GI50 (KM12 colon): 7.67 µM
- TGI (KM12 colon): 20.5 µM
- GI50 (HT29 colon): 15.2 µM
- TGI (HT29 colon): 29.1 µM
- GI50 (A498 renal): 16.3 µM
- TGI (A498 renal): 30.7 µM
- GI50 (T-47D breast): 17.7 µM
- TGI (T-47D breast): 45 µM
- GI50 (ACHN renal): 11.9 µM
- TGI (ACHN renal): 24.8 µM
- GI50 (SF-539 CNS): 15.2 µM
- TGI (SF-539 CNS): 28.5 µM
- GI50 (HCC-2998 colon): 13.9 µM
- TGI (HCC-2998 colon): 27 µM
- GI50 (SR leukemia): 7.93 µM
- TGI (SR leukemia): 27.1 µM
- GI50 (M14 melanoma): 14.4 µM
- TGI (M14 melanoma): 27.7 µM
- GI50 (U251 CNS): 5.64 µM
- TGI (U251 CNS): 18.4 µM
- GI50 (MOLT-4 leukemia): 7.92 µM
- TGI (MOLT-4 leukemia): 24.1 µM
- GI50 (RPMI-8226 leukemia): 10.2 µM
- TGI (RPMI-8226 leukemia): 32.9 µM
- GI50 (SF-295 CNS): 12.5 µM
- TGI (SF-295 CNS): 25.6 µM
- GI50 (COLO 205 colon): 16 µM
- TGI (COLO 205 colon): 29.9 µM
- GI50 (IGROV1 ovarian): 14.2 µM
- TGI (IGROV1 ovarian): 29.8 µM
- GI50 (BT-549 breast): 5.22 µM
- TGI (BT-549 breast): 18.1 µM
- GI50 (K-562 leukemia): 7.53 µM
- TGI (K-562 leukemia): 23.6 µM
- GI50 (HOP-62 NSCLC): 15.4 µM
- TGI (HOP-62 NSCLC): 29.6 µM
- GI50 (UACC-62 melanoma): 11.4 µM
- TGI (UACC-62 melanoma): 23.6 µM
- GI50 (MDA-MB-435): 17 µM
- TGI (MDA-MB-435): 33.7 µM
- GI50 (OVCAR-5 ovarian): 16.5 µM
- TGI (OVCAR-5 ovarian): 33.1 µM
- GI50 (HOP-92 NSCLC): 3.4 µM
- TGI (HOP-92 NSCLC): 15.4 µM
- GI50 (NCI-H522 lung): 4.52 µM
- TGI (NCI-H522 lung): 17.1 µM
- GI50 (SF-268 CNS): 8.58 µM
- TGI (SF-268 CNS): 37.8 µM
- GI50 (786-0 renal): 15.7 µM
- TGI (786-0 renal): 30.5 µM
- GI50 (RXF 393 renal): 10.2 µM
- TGI (RXF 393 renal): 22.2 µM
- GI50 (HCT-15 colon): 5.34 µM
- TGI (HCT-15 colon): 18.2 µM
- GI50 (MDA-MB-468 breast): 12.9 µM
- TGI (MDA-MB-468 breast): 27 µM
- GI50 (HCT-116 colon): 12.1 µM
- TGI (HCT-116 colon): 24.7 µM
- GI50 (OVCAR-3 ovarian): 15 µM
- TGI (OVCAR-3 ovarian): 29.4 µM
- GI50 (MCF7 breast): 13.6 µM
- TGI (MCF7 breast): 28.3 µM
- GI50 (NCI-H226 lung): 15.4 µM
- TGI (NCI-H226 lung): 31.2 µM
- GI50 (HL-60(TB) leukemia): 8.84 µM
- TGI (HL-60(TB) leukemia): 26.8 µM
- GI50 (OVCAR-8 ovarian): 15.6 µM
- TGI (OVCAR-8 ovarian): 31 µM
- GI50 (LOX IMVI melanoma): 12.4 µM
- TGI (LOX IMVI melanoma): 24.9 µM
- GI50 (PC-3 prostate): 6.37 µM
- TGI (PC-3 prostate): 22 µM
- GI50 (NCI-H460 lung): 11.2 µM
- TGI (NCI-H460 lung): 24.6 µM
- GI50 (DU-145 prostate): 20.7 µM
- TGI (DU-145 prostate): 46.6 µM
- GI50 (NCI/ADR-RES ovarian): 13.3 µM
- TGI (NCI/ADR-RES ovarian): 29.1 µM
- GI50 (A549 NSCLC): 10.2 µM
- TGI (A549 NSCLC): 23 µM
